Reference: US8906936B2, “Pharmaceutical combination comprising co-administration of taxane and N-(1-cyclohexyl-2-{2-[4-(4-fluoro-benzoyl)-thiazol-2-yl]-pyrrolidin-1-yl}-2-oxo-ethyl)-2-methylamino-propionamide or pharmaceutically acceptable salt(s) thereof” (Novartis AG, priority 2005, dated 2014)
One block for each molecule: values may come before it.

Assays:
MDA231 = assay: 72 hr MTS assay, LBW242 with or without Taxol, MDA231; type: cell-based, human
Description: (§1) 1. […] MTS Data is generated as described below:
(§2) Selection of IAP Inhibitor Dose Levels

SKOV3 = assay: 72 hr MTS assay, LBW242 with or without Taxol, SKOV3; type: cell-based, human
Description: as §1, §2

BIR3 domain of CIAP1 = BIR3 domain of CIAP1 (Homo sapiens, UniProt Q13490); assay: affinity for BIR3 domain of CIAP1; type: binding
[1] = system: tumor cell lines representing lung, ovarian, melanoma, pancreatic cancers; assay: 72 hr MTS assay, panels of tumor cell lines (lung, ovarian, melanoma, pancreatic)
Experimental: To determine whether the spectrum of tumor cell lines which responded to these agents would be wider in combination with the cytotoxic drug Taxol, we subject panels of tumor cell lines representing a number of human cancers to in vitro combination analyses.
MTS Reagent (#G1111; Promega) in PBS, pH 6-6.5. […] Tumor Cell Lines are purchased from ATCC.
Cell proliferation/cell death is analyzed in 72 hr. […] Tumor cell lines are plated at subconfluent densities in 96 well plate format and allowed to adhere for 12-16 hr. Cpds are then added according to the following schemes: i.
Chemotherapeutic agents or cytotoxic cpds (Ctx) are added alone, in an 8-point/10-fold titration scheme from high to low dose, in triplicate. ii. […] Once all dosing is completed, cells are cultured for a further 72 hr. and then assayed using the MTS format:
Plate cells in RPMI/10% FBS Complete medium. […]
Add MTS/PMS reagents to T.0 Plate(s). […] Read OD 490 nm using SoftMax Pro software on a Molecular Devices (Sunnyvale, Calif.) Spectrophotometer. Calculate T.0 values for each cell line to be assayed by generating the mean value of the OD 490 nm readings from each cell line's T.0 wells (6/cell line) and subtracting the mean OD 490 nm values from Blank wells. […]
Add 20 ul mixture to ea. well & incubate plate(s) 2 hr. @ 37° C./5% CO2. Read OD 490 nm using SoftMax Pro software on a Molecular Devices Spectrophotometer. […]

BIR3 domain of XIAP = BIR3 domain of XIAP (Homo sapiens, UniProt P98170); assay: affinity for BIR3 domain of XIAP; type: binding
melanoma cell line A375 = assay: three day proliferation assay in A375; type: cell-based
Experimental: Bottom two curves show Taxol dose response in presence of either 6 μM or 12 μM compound of formula (III).

[2] = system: orthotopic breast cancer model MDA-MB-231; assay: orthotopic breast cancer model MDA-MB-231, anti-tumor activity; type: in vivo; details: in combination with Paclitaxel; established tumors treated for two weeks; compared to either single agent
[3] = system: ovarian carcinoma line SKOV3; assay: anti-proliferative activity of combination with Docetaxel in SKOV3 in vitro; type: cell-based; details: across a dose range
Description: FIG. 1 indicates anti-proliferative activity of compound of formula (III) alone (bottom row), Docetaxel alone (most leftward column) and combinations of the two agents across a dose range. FIG. 2 is the corresponding isobologram at 70% growth inhibition.

[4] = criterion: minimum five fold potency shift of Taxol IC50 relative to Taxol alone

Chain of BIR3 domain of CIAP1 (Q13490 253-363 limits assumed): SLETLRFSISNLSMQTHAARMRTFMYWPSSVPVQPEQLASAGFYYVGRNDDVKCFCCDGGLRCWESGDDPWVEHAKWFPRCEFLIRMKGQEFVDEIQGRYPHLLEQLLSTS
Chain of BIR3 domain of XIAP (P98170 241-356 limits assumed): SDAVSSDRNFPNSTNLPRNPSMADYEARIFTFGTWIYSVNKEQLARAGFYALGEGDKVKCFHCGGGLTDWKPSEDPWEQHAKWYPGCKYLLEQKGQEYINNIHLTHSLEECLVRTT

SMILES: CN[C@@H](C)C(=O)N[C@H](C(=O)N1CC[C@H]2CCN(CCc3ccccc3)C[C@H]21)C1CCCCC1 [LBW242]
combination activity with Taxol (MDA231; [4]): exhibit combination activity | response to monotherapy (MDA231; single agent): responsive | combination activity with Taxol (SKOV3; [4]): exhibit combination activity | response to monotherapy (SKOV3; single agent): responsive | affinity (BIR3 domain of CIAP1): nM affinity | range of tumor cell lines sensitive in combination with a cytotoxic agent versus as a single agent ([1]; in combination with Taxol): slightly larger | single agent activity across tumor cell lines ([1]; single agent, in vitro): single agent activity on a limited number of tumor cell lines

affinity (BIR3 domain of XIAP): nM affinity
SMILES: CN[C@@H](C)C(=O)N[C@H](C(=O)N1CCC[C@H]1c1nc(C(=O)c2ccc(F)cc2)cs1)C1CCCCC1 [LCL161]

SMILES: CN[C@@H](C)C(=O)N[C@H](C(=O)N1CC[C@H]2CCN(CCc3ccccc3)C[C@H]21)C1CCCCC1 [compound of formula (III)]
anti-proliferative activity of Taxol in combination (melanoma cell line A375; Taxol dose response in presence of 6 μM or 12 μM compound of formula (III), A375, three day): dramatically enhanced | stand alone activity (melanoma cell line A375; single agent, A375 (data not shown)): no stand alone activity | anti-tumor activity of the combination with Paclitaxel [2]: superior anti-tumor activity compared to either agent administered as a single agent | interaction of the combination with Docetaxel (anti-proliferative activity) [3]: significant synergy
